Patent US12687495B2, “Single cell selection and isolation” (ERASMUS UNIVERSITY MEDICAL CENTER ROTTERDAM, priority 2019, dated 2026)

What was measured:
[1] = UV-Vis absorption spectrum; format: physicochemical
From the text: Without wishing to be bound by theory, the chemical compound and the uncaging schematically proceeds as illustrated in FIG. 12. In a preferred embodiment, the photosensitizer moiety absorbs light of a wavelength from 360 nm-420 nm while the caged fluorophore moiety is essentially insensitive to light of a wavelength >400 nm. This typically means that the absorption coefficient of the photosensitizer as a wavelength of higher than 400 nm is more than 10 times, preferably more than 40 times as high as the absorption coefficient of the caged fluorophore moiety at the same wavelength.

[2] = test system: MCF10A cells; assay: Uncaging efficiency of caged rhodamine with or without thioxanthone in cells; format: cell-based; conditions: for photoactivation / fluorescent response of irradiated cells: cells incubated with 15 uM, 405 nm exposure (1000 J/cm^2)
Description: FIGS. 11A and 11B illustrate images of cells incubated with a phototagging agent, with and without photosensitizer, respectively.
For example, uncaging efficiency is determined by a relative decrease in the energy or intensity of light needed to uncage the phototagging agent. For example, a wavelength at which the amount of energy or intensity is compared is more than four hundred nanometer, e.g. 405 nm as shown in the comparative example of FIGS. 11A and 11B.
The comparison is carried out by directly measuring uncaging efficiency in biological samples. The described experiment was conducted in mammalian cancer cell lines but can be generalized without loss of relevance to other mammalian cell types. The phototagging agent (caged rhodamine with thioxanthone) at 15 uM was incubated with MCF10A cells for 15 min. The caged moiety was then removed by irradiation with 405 nm CW light at 500-1500 J/cm^2. […] The uncaged rhodamine in the cells was imaged by 532 nm excitation (200 mW/0.35 cm^2).

[3] = test system: cells; assay: Cell permeability assay: fluorescence and retention of activated dye in phototagged cells; format: cell-based; conditions: 15 uM for 15 min, PBS rinse, 405 nm light (1000 J/cm^2), 532 nm excitation; FIG. 10B; listed as phototagging agent
From the text: The unreacted agent was then rinsed away with PBS (phosphate buffered Saline). […] After activation, fluorescence of photoactivated uncaged rhodamine was observed and imaged by 532 nm excitation (200 mW/0.35 cm^2).

COc1cc(COC(=O)N2CCCc3cc4c(cc32)Oc2cc3c(cc2C42OC(=O)c4cc(C(=O)Nc5ccc6sc7ccccc7c(=O)c6c5)ccc42)CCCN3C(=O)OCc2cc(OC)c(OC)cc2[N+](=O)[O-])c([N+](=O)[O-])cc1OC [chemical compound A]
absorption >400 nm [1]: has absorption >400 nm
light energy at which the caged moiety was removed (uncaging) ([2]; 405 nm CW light, 15 uM agent incubated with MCF10A cells for 15 min, uncaged rhodamine imaged by 532 nm excitation): 500-1500 J/cm^2
uncaging efficiency compared to corresponding caged rhodamine without photosensitizer thioxanthone ([2]; FIG. 10A, 405 nm): more than ten
photoactivation / fluorescent response of irradiated cells ([2]; listed as caged rhodamine conjugated with thioxanthone): a fluorescent response F could be measured
photoactivation / fluorescent response of irradiated cells ([2]; listed as phototagging agent): photoactivated
time the uncaged phototagging agent stays inside cells (photoactivated fluorescence observed) [3]: seven
